{"source": "patent US6451837B1", "about": "“Neuroprotective effects of mitogen-activated protein kinase (MAPK) cascade inhibitors” (priority 1999, dated 2002)", "format_in_all_cases": "cell-based, Wistar rat", "key": {"[1]": {"test_system": "cultured hippocampal tissue explants", "test": "NMDA-induced cell death in cultured hippocampal slices, propidium iodide fluorescence", "details": "for number of dead cells lower than in explants treated with NMDA alone: staurosporine 0.2 μM; for reduction of NMDA toxicity: treated 2 hours prior to NMDA 50 μM, PD098059 30-90 μM, wortmannin 1-5 μM, FIG. 2-4; for neuroprotection to nerve cells, as described in Example 1: PD098059 about 30-90 μM, apigenin about 25-100 μM"}, "[2]": {"test_system": "cultured hippocampal tissue explants", "test": "Cell death induced by transfer to fresh culture medium in cultured hippocampal slices, propidium iodide fluorescence", "experimental": "(§1) Seven day old Wistar rat pups were anaesthetized with fluothane, decapitated and transverse hippocampal slices (400 microns) were cultured for 12 days on 6-well tissue culture plates containing 1 ml of culture medium. The medium composition was 50% minimal essential medium (MEM), 25% horse serum, 25% Earl's balanced salt solution with D-glucose and HEPES, penicillin G and streptomycin sulfate, 5000 units/ml and 5 μg/ml respectively and the pH, 7.15. Slices were cultured at 36.5° C., 100% humidity, 95% air and 5% CO2 atmosphere, and were fed twice weekly by 50% medium exchange. All drugs were dissolved in water or dimethylsulfoxide (DMSO, final concentration was 0.1%) to make stock solutions. Controls for DMSO effects were performed where appropriate. To apply a drug, the stock solution was dissolved in 1 ml of fresh culture medium to make a desired concentration. Then, hippocampal slices were transferred for a specified time interval to the fresh medium containing the drug. To terminate the drug action, slices were again transferred to a fresh medium containing 2 mg/ml propidium iodide (PI). The medium temperature was kept at 36° C. during the transfers. Since the change of medium induced nerve cell death, control experiments were performed by transferring hippocampal slices an equal number of times into the fresh medium with the intervals between transfers equal to the time interval that slices were exposed to the drug. In a separate series of experiments the medium replacement was performed twice with a 30 minute interval in order to induce cell death. Cell death was measured as the PI fluorescence intensity by using MRC-600 Laser Scanning Confocal Imaging System. PI was added to the medium 30 minutes prior to taking control images (immediately before the drug treatment). […] Each experiment was performed at least in triplicate, on 5-6 slices each time and data expressed as an average of all experiments. Cell death index was derived from PI fluorescence intensity normalized to the intensity values obtained after the 48 hour exposure of slices to an ambient temperature of 4° C. […]"}, "[3]": {"test_system": "cultured hippocampal tissue explants", "test": "Cell death induced by amyloid β-protein fragment 25-35 in cultured hippocampal slices", "details": "30-90 μM for 2 hours prior to the addition of toxic peptides", "experimental": "as §1, with “To terminate the drug action, slices were again transferred to a fresh medium containing 2 mg/ml propidium iodide (PI). The medium temperature was kept at 36° C. during the transfers. Since the change of medium induced nerve cell death, control experiments were performed by transferring hippocampal slices an equal number of times into the fresh medium with the intervals between transfers equal to the time interval that slices were exposed to the drug. In a separate series of experiments the medium replacement was performed twice with a 30 minute interval in order to induce cell death.” left out, “System.” for “System. PI was added to the medium 30 minutes prior to taking control images (immediately before the drug treatment).”"}, "[4]": {"details": "24 hours after NMDA exposure, FIG. 5"}}, "data": [{"molecule": "N[C@H](CCCP(=O)(O)O)C(=O)O", "note": "[d-APV]", "values": [{"measurement": "block of NMDA-induced cell death", "setting": "[1]; slices exposed to NMDA for 30 minutes", "value": "could be blocked"}]}, {"molecule": "CN[C@@H]1C[C@H]2O[C@@](C)([C@@H]1OC)n1c3ccccc3c3c4c(c5c6ccccc6n2c5c31)C(=O)NC4", "note": "[staurosporine]", "values": [{"measurement": "number of dead cells lower than in explants treated with NMDA alone", "setting": "[1]; [4]", "value": 45, "unit": "%"}, {"measurement": "reduction of NMDA toxicity", "setting": "[1]", "value": "somewhat effective"}]}, {"molecule": "CN[C@H](CC(=O)O)C(=O)O", "note": "[NMDA, N-methyl-D-aspartate]", "values": [{"measurement": "cells killed, relative to 4° C. exposure taken as 100% of cells", "setting": "[1]; 50 μM NMDA, 30 minutes exposure", "value": "approximately 30%"}, {"measurement": "cell death in the dentate gyrus", "setting": "[1]; NMDA 2.5-500 μM", "value": "did not induce concentration-dependent increase in cell death"}, {"measurement": "cell death in the CA1-CA4 region of the hippocampus", "setting": "[1]; NMDA 2.5-500 μM for 30 minutes", "value": "marked cell death"}]}, {"molecule": "O=c1cc(-c2ccc(O)cc2)oc2cc(O)cc(O)c12", "note": "[apigenin]", "values": [{"measurement": "neuroprotection to nerve cells, as described in Example 1", "setting": "[1]", "value": "effective in providing neuroprotection"}]}, {"molecule": "NC(CCCP(=O)(O)O)C(=O)O", "note": "(stereo not shown) [AP5]", "values": [{"measurement": "block of the increase in cell death caused by transfers to fresh medium", "setting": "[2]; AP5 20 μM, CA1-CA4 and dentate gyrus", "value": "not blocked"}]}, {"molecule": "COc1cccc(-c2cc(=O)c3ccccc3o2)c1N", "note": "[PD098059, 2-(2′-amino-3′methoxyphenyl)-oxanaphthalen-4-one]", "values": [{"measurement": "number of dead cells lower than in explants treated with staurosporine", "setting": "[1]; [4]", "value": 33, "unit": "%"}, {"measurement": "number of dead cells lower than in explants treated with NMDA alone", "setting": "[1]; [4]", "value": 95, "unit": "%"}, {"measurement": "neuroprotection to nerve cells, as described in Example 1", "setting": "[1]", "value": "effective in providing neuroprotection"}, {"measurement": "reduction of NMDA-induced cell death", "setting": "[1]; applied immediately after NMDA", "value": "effective in reducing NMDA-induced cell death"}, {"measurement": "reduction of NMDA toxicity", "setting": "[1]", "value": "significantly reduced NMDA toxicity"}, {"measurement": "cell death after exposure to fresh medium at 24 hours", "setting": "[2]; 24 hours, PD098059 30-90 μM for 2 hours prior, wortmannin 1 μM, FIG. 6", "value": "significantly reduced cell death"}, {"measurement": "cell death after exposure to fresh medium at 72 hours", "setting": "[2]; 72 hours, PD098059 30-90 μM for 2 hours prior, wortmannin 1 μM, FIG. 6", "value": "significantly reduced cell death"}, {"measurement": "cell death induced by toxic amyloid peptides", "setting": "[3]", "value": "prevented cell death"}]}]}
